Measurements as given in patent US8999323B2, “Composition that can be cured by polymerisation for the production of biodegradable, biocompatible, cross-linkable polymers on the basis of polyvinyl alcohol” (Technische Universität Wien, priority 2007, dated 2015).
Where two headings read alike, the source gives them in different places.

How the values were obtained:
Type in all cases: cell-based
[1] = test system: osteoblast-like cells MC3T3-E1; assay: in vitro
Text: (§1) In order to assess toxicity, osteoblast-like cells MC3T3-E1 (source: ATCC CRL-2596) were used. At first, the adherent cells were separated from each other and from the bottom of the petri dishes using pronase, and were then mixed with freshly prepared medium consisting of commercially available Minimal Essential Medium Eagle's alpha Modification (αMEM), supplemented with additional glucose from originally 1 g/l to a glucose concentration of 4.5 g/l as well as with 10% FCS (fetal calf serum), 30 μg/ml gentamycin (broad-spectrum antibiotic), L-glutamine (400 mg/l), and ascorbic acid (50 mg/l), so as to obtain a cell concentration of 40,000 cells/ml. 1 ml of this cell suspension was precharged into each well (diameter 1.9 cm) of multi-well plates.
(§2) The multi-well containing the cells was incubated for 5 days at 37° C. under a humid atmosphere with 5% CO2 together with increasing amounts of the monomers used in the examples and comparative examples. Then the cells were washed with phosphate-buffered physiological saline and frozen before the measurements, in order to break up the cells. After thawing of the cells, the amount of deoxyribonucleic acid, which is proportional to the cell count, was determined by staining with a fluorescent dye, measuring the fluorescence at 460 nm (after excitation at 360 nm) and comparing the value to a calibration curve previously prepared.

[2] = in vitro; settings: mouse
Text: as §1, §2

[3] = test system: human umbilical vein endothelial cells (HUVEC); assay: Toxicity test of monomers with endothelial cells (EZ4U)
Description: For an additional toxicity test of monomers of formula (I), human umbilical vein endothelial cells (HUVEC) were used. After trypsinating the confluent primary cultures, the cells were suspended in commercial Medium 199 with 20% fetal calf serum, put into 96-well cell culture plates in a concentration of 40,000 cells/cm^2, and cultivated until they were confluent again (37° C., 5% CO2). The cell supernatants were then lifted, and the endothelial cells were incubated for 24 hours with increasing monomer concentrations (0.1 nM to 1 mM in Medium 199 with 10% fetal calf serum). The influence on cell proliferation was examined by means of a non-radioactive cell proliferation and cytotoxicity test (EZ4U, Biomedica, Vienna). This test is based on the conversion by living cells of colorless tetrazolium salts into intensively colored formazan derivatives. The photochemically measured staining is proportional to the number of living cells in the sample. Thus, the influence of the test substances on the proliferation of the cells may be photometrically determined. Endothelial cells which had been cultivated without the addition of monomer solutions were used as a growth control.

[4] = MC3T3-E1, 5 days incubation, DNA fluorescence, values are LC50 × 10^4
[5] = HUVEC, 24 hours, concentration of half-maximum proliferation inhibition

Row | Compound | CC50 [2, 4] | CC50 at 5 days [2] | also measured
1 | C=COC(=O)N(OC)C(=O)C=C [AMVCA, N-acryloyl N-methoxy vinyl carbamate] | < 0.01 mM |  | toxicity for osteoblasts compared with the acrylates of the comparative examples ([1]; statement on Table 2): similarly toxic as the majority of the comparative examples
2 | C=COC(=O)CCCCC(=O)OC=C [AVE, adipic acid divinyl ester] |  |  | Cmax1/2 [3, 5]: >1000 µM
3 | C=COC(=O)OCCCCOC(=O)OC=C [BDDVC, 1,4-butanediol bis(vinyl carbonate)] |  |  | CC50 at 5 days ([2]; osteoblast-like MC3T3-E1 cells (ATCC CRL-2596), MC3T3-E1, 5 days incubation, DNA fluorescence, values are LC50 × 10^4, read-out: In vitro LC50 × 10^4): > 10 mM
4 | C=C(C)C(=O)OCCCCOC(=O)C(=C)C [BDMA, 1,4-butanediol dimethacrylate, reference compound] | < 0.01 mM |  | Cmax1/2 [3, 5]: 40 µM
5 | C=COC(=O)OCCC#N [CEVC, 2-cyanoethyl vinyl carbonate] |  | > 10 mM | 
6 | C=COC(=O)OCCOCCOC(=O)OC=C [DEGDVC, diethylene glycol bis(vinyl carbonate)] |  | > 10 mM | 
7 | C=COP(=O)(OCC)OCC [DEVP, diethyl vinyl phosphate] | > 10 mM |  | 
8 | C=COC(=O)CCCCCCCCC [DVE, decanoic acid vinyl ester] |  | > 10 mM | Cmax1/2 [3, 5]: >1000 µM
9 | C=COP(=O)(OC=C)OCC [DVEP, divinyl ethyl phosphate] | > 10 mM |  | 
10 | C=COC(=O)NCCOP(=O)(OCC)OCCNC(=O)OC=C [EBVCAEP, ethyl bis[2-(vinyloxycarbonylamino)ethyl]phosphate] | > 10 mM |  | 
11 | C=COC(=O)OCCOC(=O)OC=C [EGDVC, ethylene glycol bis(vinyl carbonate)] |  | > 10 mM | 
12 | C=COC(=O)OCC [EVC, ethylvinyl carbonate] |  | > 10 mM | 
13 | C=COC(=O)OCC(COC(=O)OC=C)OC(=O)OC=C [GTVC, glycerine tris(vinyl carbonate)] |  | > 10 mM | 
14 | C=CC(=O)OCCCCCCOC(=O)C=C [HDDA, 1,6-hexanediol diacrylate, reference compound] | < 0.01 mM |  | Cmax1/2 [3, 5]: 20 µM
15 | C=COC(=O)OCCCCCCOC(=O)OC=C [HDDVC, 1,6-hexanediol bis(vinyl carbonate)] |  | > 10 mM | 
16 | C=COC(=O)CCCCC [HVE, hexanoic acid vinyl ester] |  | > 10 mM | Cmax1/2 [3, 5]: >1000 µM
17 | C=COC(=O)NCCCOCCOCCCNC(=O)OC=C [JAVM, 3,3′-ethylenedioxy bis(propylamine)divinyl carbamate] | > 10 mM |  | 

Row | Compound | CC50 [2, 4] | CC50 at 5 days [2] | also measured
18 | C=COC(=O)CCCCCCC(=O)OC=C [KVE, octanedioic acid divinyl ester] |  | > 10 mM | Cmax1/2 [3, 5]: >1000 µM
19 | C=COC(=O)ON(C)C(=O)OC=C [MHADVC, N,O-Bis(vinyloxycarbonyl)-N-methyl hydroxylamine] | > 10 mM |  | 
20 | C=COC(=O)NOC [MVCA, N-methoxy vinyl carbamate] | > 10 mM |  | 
21 | C=COC(=O)N(C)CCN(C)C(=O)OC=C [N,N′-dimethyl ethylenediamine bis(vinyl carbamate)] | > 10 mM |  | 
22 | C=COC(=O)[C@H](Cc1ccccc1)NC(C)=O [PAVE, N-acetyl phenylalanine vinyl ester] |  | > 10 mM | Cmax1/2 [3, 5]: >1000 µM
23 | C=COC(=O)CCCCCCCCC(=O)OC=C [SEVE, sebacic acid divinyl ester] |  | > 10 mM | Cmax1/2 [3, 5]: >1000 µM
24 | C=COC(=O)N(C)CC(=O)OC [SMEVCA, sarcosine methyl ester vinyl carbamate] | > 10 mM |  | 
25 | C=COC(=O)CC(C)C(C)C(CC(=O)OC=C)C(C)CC(=O)OC=C (centres unmarked) [TFVE, trimeric fatty acid trivinyl ester] |  | > 10 mM | 
26 | C=CC(=O)OCC(CC)(COC(=O)C=C)COC(=O)C=C [TTA, trimethylolpropane triacrylate, reference compound] | < 0.01 mM |  | Cmax1/2 ([3]; human, 24 h): 10 µM
27 | C=COC(=O)COCCOCCOCC(=O)OC=C [TUVE, ω,ω′-3,6,9-trioxaundecanedioic acid divinyl ester] |  | > 10 mM | 
28 | C=COP(=O)(OC=C)OC=C [TVP, trivinyl phosphate] | > 10 mM |  | 
29 | diethylene glycol bis[O—(O′- vinylmaleinoy1)-polylactate] [DVMPL] |  |  | Cmax1/2 [3, 5]: >1000 µM
30 | ethoxylated (20) TTA, MG 1200 [ETA, reference compound] |  |  | Cmax1/2 ([3]; human): 100 µM; CC50 [1]: 0.07 mM
31 | hydrated ricinus oil tris(vinyl carbonate) [HRiTVC] |  |  | CC50 [1]: > 10 mM
32 | polyethylene glycol diacrylate, MG 800 [PEG-DA, reference compound] |  |  | Cmax1/2 ([3]; human): 500 µM; CC50 [1]: 0.11 mM
33 | polyethylene glycol(400) bis(vinyl carbonate) [PEGDVC] |  |  | CC50 [1]: > 10 mM
